Test results: US9085555B2, “Complement pathway modulators and uses thereof” (priority 2011, dated 2015)

Molecular target: Factor D (Homo sapiens (Human), UniProt P00746)
Assay: biochemical
Type: biochemical
Conditions: read-out: IC50

Factor D, sequence (P00746 26-253): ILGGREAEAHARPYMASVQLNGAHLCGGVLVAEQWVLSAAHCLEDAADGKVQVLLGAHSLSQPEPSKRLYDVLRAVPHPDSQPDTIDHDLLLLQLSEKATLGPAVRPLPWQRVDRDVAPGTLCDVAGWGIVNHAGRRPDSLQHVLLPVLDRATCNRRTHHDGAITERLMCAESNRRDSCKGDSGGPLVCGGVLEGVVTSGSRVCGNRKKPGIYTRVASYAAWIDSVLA

SMILES | IC50 [nM]
CN(C)CCNC(=O)c1cc(Cl)c(F)c(CNC(=O)[C@@H]2C[C@@H](F)CN2C(=O)Nc2cn(C(N)=O)c3ccccc23)c1 [Example 154, (2S,4R)-4-Fluoro-pyrrolidine-1,2-dicarboxylic acid 1-[(1-carbamoyl-1H-indol-3-yl)-amide] 2-[3-chloro-5-(2-dimethylamino-ethyl-carbamoyl)-2-fluoro-benzylamide]] | 1370
NC(=O)n1cc(NC(=O)N2C3CC3C[C@H]2C(=O)NCc2ccc(Cl)s2)c2ccccc21 (stereo partly drawn) [Example 155, (1R,3S,5R)-2-Aza-bicyclo[3.1.0]hexane-2,3-dicarboxylic acid 2-[(1-carbamoyl-1H-indol-3-yl)-amide] 3-[(5-chloro-thiophen-2-ylmethyl)-amide]] | 20
COC(=O)c1ccc(NC(=O)[C@@H]2C[C@@H](F)CN2C(=O)Nc2cn(C(N)=O)c3ccccc23)cc1Br [Example 156, 2-Bromo-4-{[(2S,4R)-1-(1-carbamoyl-1H-indol-3-ylcarbamoyl)-4-fluoro-pyrrolidine-2-carbonyl]-amino}-benzoic acid methyl ester] | 150
CCc1cccc(NC(=O)[C@@H]2CC3CC3N2C(=O)Nc2cn(C(N)=O)c3ccccc23)n1 (stereo partly drawn) [Example 158, (1R,3S,5R)-2-Aza-bicyclo[3.1.0]hexane-2,3-dicarboxylic acid 2-[(1-carbamoyl-1H-indol-3-yl)-amide] 3-[(6-ethyl-pyridin-2-yl)-amide]] | 80
NC(=O)n1cc(NC(=O)N2C[C@H](F)C[C@H]2C(=O)Nc2cc(Br)cc(C(=O)O)c2)c2ccccc21 [Example 159, 3-bromo-5-{[(2S,4R)-1-(1-carbamoyl-1H-indol-3-ylcarbamoyl)-4-fluoro-pyrrolidine-2-carbonyl]-amino}-benzoic acid] | 55
CC(C)(C)c1csc(NC(=O)[C@@H]2CCCN2C(=O)Nc2cn(C(N)=O)c3ccccc23)n1 [Example 160, (S)-Pyrrolidine-1,2-dicarboxylic acid 2-[(4-tert-butyl-thiazol-2-yl)-amide] 1-[(1-carbamoyl-1H-indol-3-yl)-amide]] | 1400
NC(=O)n1cc(NC(=O)N2CSC[C@H]2C(=O)Nc2cccc(OC(F)(F)F)c2)c2ccccc21 [Example 161, (R)-Thiazolidine-3,4-dicarboxylic acid 3-[(1-carbamoyl-1H-indol-3-yl)-amide] 4-[(3-trifluoromethoxy-phenyl)-amide]] | 987
COCCOc1ccc2c(c1)c(NC(=O)N1C3CC3C[C@H]1C(=O)NCc1cccc(Cl)c1F)cn2C(N)=O (stereo partly drawn) [Example 162, (1R,3S,5R)-2-Aza-bicyclo[3.1.0]hexane-2,3-dicarboxylic acid 2-{[1-carbamoyl-5-(2-methoxy-ethoxy)-1H-indol-3-yl]-amide} 3-(3-chloro-2-fluoro-benzylamide)] | 5
CCc1cccc(NC(=O)[C@@H]2C[C@@H](F)CN2C(=O)Nc2cn(C(N)=O)c3ccccc23)n1 [Example 163, (2S,4R)-4-Fluoro-pyrrolidine-1,2-dicarboxylic acid 1-[(1-carbamoyl-1H-indol-3-yl)-amide] 2-[(6-ethyl-pyridin-2-yl)-amide]] | 100
C[C@]1(O)C[C@@H](C(=O)NCc2cccc(Cl)c2F)N(C(=O)Nc2cn(C(N)=O)c3ccccc23)C1 [Example 164, (2S,4S)-4-Hydroxy-4-methyl-pyrrolidine-1,2-dicarboxylic acid 1-[(1-carbamoyl-1H-indol-3-yl)-amide] 2-(3-chloro-2-fluoro-benzylamide)] | 400
Cc1ncc(NC(=O)[C@@H]2C[C@@H](F)CN2C(=O)Nc2cn(C(N)=O)c3ccccc23)cc1Br [Example 165, (2S,4R)-4-Fluoro-pyrrolidine-1,2-dicarboxylic acid 1-[(1-carbamoyl-1H-indol-3-yl)-amide] 2-[(5-bromo-4-methyl-pyridin-3-yl)-amide]] | 140
NC(=O)n1cc(NC(=O)N2C3CC3C[C@H]2C(=O)NCc2cccc(Cl)c2F)c2ccccc21 (stereo partly drawn) [Example 166, (1R,3S,5R)-2-Aza-bicyclo[3.1.0]hexane-2,3-dicarboxylic acid 2-[(1-carbamoyl-1H-indol-3-yl)-amide] 3-(3-chloro-2-fluoro-benzylamide)] | 3
Cc1ncc(Br)cc1NC(=O)[C@@H]1C[C@@H](F)CN1C(=O)Nc1cn(C(N)=O)c2ccccc12 [Example 168, (2S,4R)-4-Fluoro-pyrrolidine-1,2-dicarboxylic acid 2-[(5-bromo-2-methyl-pyridin-3-yl)-amide] 1-[(1-carbamoyl-1H-indol-3-yl)-amide]] | 250
NC(=O)n1cc(NC(=O)N2CCS[C@H]2C(=O)NCc2cccc(F)c2F)c2ccccc21 [Example 169, (S)-Thiazolidine-2,3-dicarboxylic acid 3-[(1-carbamoyl-1H-indol-3-yl)-amide] 2-(2,3-difluoro-benzylamide)] | 268
NC(=O)n1cc(NC(=O)N2CCC[C@H]2C(=O)NCc2cccc(Cl)c2F)c2ccccc21 [Example 170, (S)-Pyrrolidine-1,2-dicarboxylic acid 1-[(1-carbamoyl-1H-indol-3-yl)-amide] 2-(3-chloro-2-fluoro-benzylamide)] | 30
NC(=O)n1cc(NC(=O)N2[C@@H]3C[C@@H]3C[C@H]2C(=O)Nc2cncc(Br)c2)c2ccccc21 [Example 171, (1R,3S,5R)-2-Aza-bicyclo[3.1.0]hexane-2,3-dicarboxylic acid 2-[(1-carbamoyl-1H-indol-3-yl)-amide] 3-[(5-bromo-pyridin-3-yl)-amide]] | 200
NC(=O)n1cc(NC(=O)N2[C@@H]3C[C@@H]3C[C@H]2C(=O)Nc2ncccc2F)c2ccccc21 [Example 172, (1R,3S,5R)-2-Aza-bicyclo[3.1.0]hexane-2,3-dicarboxylic acid 2-[(1-carbamoyl-1H-indol-3-yl)-amide] 3-[(3-fluoro-pyridin-2-yl)-amide]] | 1050
NC(=O)n1cc(NC(=O)N2CCS[C@H]2C(=O)NCc2cccc(Cl)c2)c2ccccc21 [Example 174, (S)-Thiazolidine-2,3-dicarboxylic acid 3-[(1-carbamoyl-1H-indol-3-yl)-amide] 2-(3-chloro-benzylamide)] | 35
NC(=O)n1cc(NC(=O)N2C3CC3C[C@H]2C(=O)Nc2cccc(Cl)c2F)c2ccccc21 (stereo partly drawn) [Example 176, (1R,3S,5R)-2-Aza-bicyclo[3.1.0]hexane-2,3-dicarboxylic acid 2-[(1-carbamoyl-1H-indol-3-yl)-amide] 3-[(3-chloro-2-fluoro-phenyl)-amide]] | 30
NC(=O)n1cc(NC(=O)N2CC[C@@H](O)[C@H]2C(=O)NCc2cccc(Cl)c2)c2ccccc21 [Example 177, (2S,3R)-3-Hydroxy-pyrrolidine-1,2-dicarboxylic acid 1-[(1-carbamoyl-1H-indol-3-yl)-amide] 2-(3-chloro-benzylamide)] | 85
NC(=O)n1cc(NC(=O)N2CCS[C@H]2C(=O)NCc2cccc(Cl)c2F)c2ccccc21 [Example 178, (S)-Thiazolidine-2,3-dicarboxylic acid 3-[(1-carbamoyl-1H-indol-3-yl)-amide] 2-(3-chloro-2-fluoro-benzylamide)] | 6
[N-]=[N+]=NC[C@H]1CC[C@@H](C(=O)Nc2cccc(OC(F)(F)F)c2)N1C(=O)Nc1cn(C(N)=O)c2ccccc12 [Example 179, (2S,5R)-5-azidomethyl-pyrrolidine-1,2-dicarboxylic acid 1-[(1-carbamoyl-1H-indol-3-yl)-amide]2-[(3-trifluoromethoxy-phenyl)-amide]] | 400
NC(=O)n1cc(NC(=O)N2CC3(CC3)C[C@H]2C(=O)NCc2cccc(Cl)c2)c2ccccc21 [Example 180, (S)-5-Aza-spiro[2.4]heptane-5,6-dicarboxylic acid 5-[(1-carbamoyl-1H-indol-3-yl)-amide] 6-(3-chloro-benzylamide)] | 650
NC(=O)n1cc(NC(=O)N2C[C@@](F)(CO)C[C@H]2C(=O)NCc2cccc(Cl)c2F)c2ccccc21 [Example 181, (2S,4R)-4-Fluoro-4-hydroxymethyl-pyrrolidine-1,2-dicarboxylic acid 1-[(1-carbamoyl-1H-indol-3-yl)-amide] 2-(3-chloro-2-fluoro-benzylamide)] | 20
C[C@H]1C[C@@H](C(=O)NCc2cccc(Cl)c2F)N(C(=O)Nc2cn(C(N)=O)c3ccccc23)C1 [Example 182, (2S,4S)-4-Methyl-pyrrolidine-1,2-dicarboxylic acid 1-[(1-carbamoyl-1H-indol-3-yl)-amide] 2-(3-chloro-2-fluoro-benzylamide)] | 63
NC(=O)n1cc(NC(=O)N2C3CC3C[C@H]2C(=O)NCc2cccc(Cl)c2)c2ccccc21 (stereo partly drawn) [Example 183, (1R,3S,5R)-2-Aza-bicyclo[3.1.0]hexane-2,3-dicarboxylic acid 2-[(1-carbamoyl-1H-indol-3-yl)-amide] 3-(3-chloro-benzylamide)] | 20
COC[C@@]12C[C@@H](C(=O)NCc3cccc(Cl)c3F)N(C(=O)Nc3cn(C(N)=O)c4ccccc34)[C@@H]1C2 [Example 184, (1R,3S,5S)-5-Methoxymethyl-2-aza-bicyclo[3.1.0]hexane-2,3-dicarboxylic acid 2-[(1-carbamoyl-1H-indol-3-yl)-amide] 3-(3-chloro-2-fluoro-benzylamide)] | 9
NC(=O)n1cc(NC(=O)N2C3CC3C[C@H]2C(=O)Nc2ccncc2F)c2ccccc21 (stereo partly drawn) [Example 185, (1R,3S,5R)-2-Aza-bicyclo[3.1.0]hexane-2,3-dicarboxylic acid 2-[(1-carbamoyl-1H-indol-3-yl)-amide] 3-[(3-fluoro-pyridin-4-yl)-amide]] | 550
CO[C@@H]1CCN(C(=O)Nc2cn(C(N)=O)c3ccccc23)[C@@H]1C(=O)NCc1cccc(Cl)c1F [Example 186, (2S,3R)-3-Methoxy-pyrrolidine-1,2-dicarboxylic acid 1-[(1-carbamoyl-1H-indol-3-yl)-amide] 2-(3-chloro-2-fluoro-benzylamide)] | 20
N#C[C@H]1C[C@@H](C(=O)Nc2cccc(OC(F)(F)F)c2F)N(C(=O)Nc2cn(C(N)=O)c3ccccc23)C1 [Example 188, (2S,4S)-4-cyano-pyrrolidine-1,2-dicarboxylic acid 1-[(1-carbamoyl-1H-indol-3-yl)-amide]2-[(2-fluoro-3-trifluoromethoxy-phenyl)-amide]] | 1070
